Assay results reported in patent US9957257B2, “Amide compounds as 5-HT4 receptor agonists” (SUVEN LIFE SCIENCES LIMITED, priority 2015, dated 2018).
pEC50: −log10 of the molar value. “And” between values parts separate entries of the source, which are not always exact repeats. Equal values may be shown once. Where a name gives a salt, the structure may show the parent alone.

What follows are compounds tested against T1, recombinant human 5-HT4 receptor (Homo sapiens, UniProt Q13639) (assay: Determination of EC50 values for 5-HT4 receptor (CHO cells, pCRE-Luc reporter)). Details: luciferase reporter, 4 hours incubation, read-out: 5-HT4 receptor agonistic binding in-vitro EC50.
T1 construct: expressed in transfected cells
Type: cell-based
Procedure: A stable CHO cell line expressing recombinant human 5-HT4 receptor and pCRE-Luc reporter system was used for cell-based assay. The assay offers a non-radioactive based approach to determine binding of a compound to GPCRs. In this specific assay, the level of intracellular cyclic AMP, which is modulated by activation, or inhibition of the receptor is measured. The recombinant cells harbor luciferase reporter gene under the control of cAMP response element.
The above cells were grown in 96 well clear bottom white plates in Hams F12 medium containing 10% fetal bovine serum (FBS). Prior to the addition of compounds or standard agonist, cells were serum starved overnight. Increasing concentrations of test compounds were added in OptiMEM medium to the cells. The incubation was continued at 37° C. in CO2 incubator for 4 hours. Medium was removed and cells were washed with phosphate buffered saline. The cells were lysed and luciferase activity was measured in a Luminometer. Luminescence units were plotted against the compound concentrations using Graphpad software. EC50 values of the compounds were defined as the concentration required in stimulating the luciferase activity by 50%.

T1 sequence (Q13639 whole entry): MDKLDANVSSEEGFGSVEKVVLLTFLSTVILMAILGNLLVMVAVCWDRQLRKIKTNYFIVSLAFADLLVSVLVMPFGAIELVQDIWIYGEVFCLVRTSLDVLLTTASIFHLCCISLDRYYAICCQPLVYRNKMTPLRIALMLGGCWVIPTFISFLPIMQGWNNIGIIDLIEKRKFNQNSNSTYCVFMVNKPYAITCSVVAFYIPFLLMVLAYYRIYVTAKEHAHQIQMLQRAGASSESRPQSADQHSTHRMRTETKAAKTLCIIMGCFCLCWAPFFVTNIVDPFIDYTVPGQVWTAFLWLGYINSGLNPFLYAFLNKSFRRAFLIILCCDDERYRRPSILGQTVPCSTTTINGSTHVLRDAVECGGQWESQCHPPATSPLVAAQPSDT

Structure (SMILES)	pEC50
CC(C)(F)CN1CCC(F)(CNC(=O)c2cc(Cl)c(N)c3c2OCCC3)CC1 [Example 57, 5-Amino-6-chloro-N-{[1-(2-fluoro-2-methylpropyl)-4-fluoro-4-piperidinyl]methyl}chroman-8-carboxamide L(+)-tartarate]	8.00 to 8.29
CC(C)(CO)CN1CC2C(CNC(=O)c3cc(Cl)c(N)c4c3OCCC4)C2C1 (stereo not drawn) [Example 58, 5-Amino-6-chloro-N-{[3-(3-hydroxy-2,2-dimethylpropyl)-3-azabicyclo[3.1.0]hex-6-yl]methyl}chroman-8-carboxamide L(+)-tartarate]	≥ 9.00
Cc1cc2c(N)c(Cl)cc(C(=O)NCC3CCN(CC(C)(C)CO)CC3)c2o1 [Example 59, 4-Amino-5-chloro-2-methyl-N-{[1-(3-hydroxy-2,2-dimethylpropyl)-4-piperidinyl]methyl}benzofuran-7-carboxamide]	≥ 9.00
COCC(C)(C)CN1CC2C(CNC(=O)c3cc(Cl)c(N)c4c3OCCC4)C2C1 (stereo not drawn) [Example 60, 5-Amino-6-chloro-N-{[3-(3-methoxy-2,2-dimethylpropyl)-3-azabicyclo[3.1.0]hex-6-yl]methyl}chroman-8-carboxamide]	≥ 9.00 and 8.30 to 8.96
COCCCN1CC2C(CNC(=O)c3cc(Cl)c(N)c4c3OCC4)C2C1 (stereo not drawn) [Example 62, 4-Amino-5-chloro-N-{[3-(3-methoxypropyl)-3-azabicyclo[3.1.0]hex-6-yl]methyl}-2,3-dihydrobenzofuran-7-carboxamide oxalate]	8.30 to 8.96
COCCCN1CC2C(CNC(=O)c3cc(Cl)c(N)c4ccoc34)C2C1 (stereo not drawn) [Example 63, 4-Amino-5-chloro-N-{[3-(3-methoxypropyl)-3-azabicyclo[3.1.0]hex-6-yl]methyl}benzofuran-7-carboxamide hydrochloride]	8.00 to 8.29
COCCCN1CC2C(CNC(=O)c3cc(Cl)c(N)c4cc(C)oc34)C2C1 (stereo not drawn) [Example 64, 4-Amino-5-chloro-2-methyl-N-{[3-(3-methoxypropyl)-3-azabicyclo[3.1.0]hex-6-yl]methyl}benzofuran-7-carboxamide hydrochloride]	8.30 to 8.96
COCCCN1CC2C(CNC(=O)c3cc(Br)c(N)c4c3OCC4)C2C1 (stereo not drawn) [Example 65, 4-Amino-5-bromo-N-{[3-(3-methoxypropyl)-3-azabicyclo[3.1.0]hex-6-yl]methyl}-2,3-dihydrobenzofuran-7-carboxamide oxalate]	7.70 to 8.00
Nc1c(Cl)cc(C(=O)NCC2CCN(CCF)CC2)c2c1CCCO2 [Example 66, 5-Amino-6-chloro-N-{[1-(2-fluoroethyl)-4-piperidinyl]methyl}chroman-8-carboxamide]	8.30 to 8.96
